Active and inactive are the calls of the source. The calls are words filed in the database; no cut-off is given here.
Assays:
PANC-1 [1] = experiment: Induction of apoptosis in human PANC-1 cells at 2 uM incubated for 48 hrs by Annexin V-FITC/PI staining based flow cytometry relative to control; type: functional
PANC-1 [2] = experiment: Synergistic antiproliferative activity against human PANC-1 cells expressing wild-type BRCA assessed as combination index at 2:1 ratio of compound:JQ1 incubated for 5 days by CCK8 assay; type: functional; settings: time 5 day
PANC-1 [3] = experiment: Induction of cell cycle arrest in human PANC-1 cells assessed as accumulation at G2/M phase at 2 uM incubated for 24 hrs in presence of JQ1 by PI staining based flow cytometry; type: functional
[4] = target: T1, Protein cereblon/Poly [ADP-ribose] polymerase 1 (Homo sapiens, UniProt P09874+Q96SW2); experiment: PROTAC activity at CRBN/PARP1 in human PANC-1 cells assessed as induction of PARP1 degradation incubated for 24 hrs by Western blot analysis; type: cell-based
PANC-1 [5] = experiment: Induction of DNA damage in human PANC-1 cells assessed as increase in gamma-H2AX level at 2 uM in presence of JQ1 by immunofluorescence based analysis; type: functional, cell-based
[6] = target: T1, Protein cereblon/Poly [ADP-ribose] polymerase 1; experiment: PROTAC activity at CRBN/PARP1 in human BXPC-3 cells assessed as induction of PARP1 degradation at 2 uM incubated for 24 hrs by immunofluorescence based analysis; type: cell-based
Target sequence in this assay (P09874 2-1014 limits assumed): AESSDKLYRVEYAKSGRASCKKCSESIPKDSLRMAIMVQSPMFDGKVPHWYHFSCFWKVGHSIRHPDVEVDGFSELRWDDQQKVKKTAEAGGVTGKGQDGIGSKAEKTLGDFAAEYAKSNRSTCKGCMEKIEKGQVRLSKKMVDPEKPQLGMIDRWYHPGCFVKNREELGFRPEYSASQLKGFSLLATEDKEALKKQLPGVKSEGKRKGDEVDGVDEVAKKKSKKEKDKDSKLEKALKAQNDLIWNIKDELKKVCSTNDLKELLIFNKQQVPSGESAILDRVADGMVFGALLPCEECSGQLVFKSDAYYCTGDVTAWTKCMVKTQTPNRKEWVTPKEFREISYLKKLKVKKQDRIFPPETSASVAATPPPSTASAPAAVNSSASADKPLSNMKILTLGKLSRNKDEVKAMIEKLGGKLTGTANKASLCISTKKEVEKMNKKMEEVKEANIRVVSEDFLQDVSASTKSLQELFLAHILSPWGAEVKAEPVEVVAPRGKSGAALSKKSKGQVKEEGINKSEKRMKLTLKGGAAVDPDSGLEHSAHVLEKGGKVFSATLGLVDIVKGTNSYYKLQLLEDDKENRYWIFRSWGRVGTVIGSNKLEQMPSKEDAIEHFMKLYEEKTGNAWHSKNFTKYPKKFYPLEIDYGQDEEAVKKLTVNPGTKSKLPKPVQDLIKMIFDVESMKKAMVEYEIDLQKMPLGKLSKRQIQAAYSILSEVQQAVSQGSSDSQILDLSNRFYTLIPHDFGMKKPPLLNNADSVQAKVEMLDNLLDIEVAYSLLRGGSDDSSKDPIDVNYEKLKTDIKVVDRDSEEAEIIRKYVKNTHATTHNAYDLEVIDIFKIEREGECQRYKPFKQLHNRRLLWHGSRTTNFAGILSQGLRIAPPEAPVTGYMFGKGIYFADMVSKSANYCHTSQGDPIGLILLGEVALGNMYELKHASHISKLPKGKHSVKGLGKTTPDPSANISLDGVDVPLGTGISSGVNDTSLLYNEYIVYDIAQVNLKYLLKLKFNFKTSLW
Target sequence in this assay (Q96SW2 whole entry partner): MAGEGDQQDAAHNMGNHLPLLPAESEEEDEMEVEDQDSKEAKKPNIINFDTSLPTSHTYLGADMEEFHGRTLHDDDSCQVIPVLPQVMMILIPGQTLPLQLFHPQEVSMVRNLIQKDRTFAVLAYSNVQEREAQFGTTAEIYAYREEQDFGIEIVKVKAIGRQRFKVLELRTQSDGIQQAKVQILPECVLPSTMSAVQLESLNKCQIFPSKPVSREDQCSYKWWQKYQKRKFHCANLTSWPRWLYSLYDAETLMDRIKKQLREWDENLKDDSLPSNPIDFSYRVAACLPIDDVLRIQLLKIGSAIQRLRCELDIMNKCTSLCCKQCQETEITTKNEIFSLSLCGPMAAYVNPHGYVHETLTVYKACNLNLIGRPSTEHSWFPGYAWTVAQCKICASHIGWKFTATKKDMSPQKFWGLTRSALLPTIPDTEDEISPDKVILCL

PANC-1 [7] = experiment: Induction of cell cycle arrest in human PANC-1 cells assessed as accumulation at G2/M phase at 2 uM incubated for 24 hrs in presence of JQ1 by PI staining based flow cytometry relative to control; type: functional
[8] = target: T1, Protein cereblon/Poly [ADP-ribose] polymerase 1; experiment: PROTAC activity at CRBN/PARP1 in human PANC-1 cells assessed as induction of PARP1 degradation incubated for 24 hrs by Western blot analysis relative to control; type: cell-based
Target sequence in this assay (P09874 2-1014 limits assumed): as the sequence (P09874 2-1014 limits assumed) above
Target sequence in this assay (Q96SW2 whole entry partner): as the sequence (Q96SW2 whole entry partner) above

PANC-1 [9] = experiment: Induction of cell cycle arrest in human PANC-1 cells assessed as decrease in CDK4 level at 2 uM incubated for 24 hrs in presence of JQ1 by […]; type: functional
PANC-1 [10] = experiment: Anti-invasive activity in human PANC-1 cells assessed as increase in invasion inhibition at 2 uM in presence of JQ1 incubated for 48 hrs by Matrigel assay relative to combination of OL/JQ1; type: functional; parameters: scale not given: the % may be the effect or the level left
PANC-1 [11] = experiment: Induction of apoptosis in human PANC-1 cells assessed as early apoptotic cells at 1 uM incubated for 48 hrs by Annexin V-FITC/PI staining based flow cytometry (reference value: 1.41 %); type: functional
[12] = Toxicity in BALB/c mouse xenografted with human PANC-1 cells assessed as pathological changes in liver at 20 mg/kg, ip for 4 weeks administered for 5 days consecutively and 2 days without treatment on every week by H and E staining based analysis; type: organism-based; settings: in vivo, 672 h
PANC-1 [13] = experiment: Induction of cell cycle arrest in human PANC-1 cells assessed as accumulation at G1 phase at 0.25 uM incubated for 24 hrs by PI staining based flow cytometry (reference value: 51.70 %); type: functional
PANC-1 [14] = experiment: Induction of cell cycle arrest in human PANC-1 cells assessed as accumulation at G2 phase at 0.25 uM incubated for 24 hrs by PI staining based flow cytometry (reference value: 9.36 %); type: functional
PANC-1 [15] = experiment: Antitumor activity against human PANC-1 cells xenografted in BALB/c mouse assessed as inhibition of tumor weight at 20 mg/kg, ip for 4 weeks administered for 5 days consecutively and 2 days without treatment on every week in presence of OL; type: functional, organism-based
PANC-1 [16] = experiment: Induction of apoptosis in human PANC-1 cells assessed as necrotic cells at 0.25 uM incubated for 48 hrs by Annexin V-FITC/PI staining based flow cytometry (reference value: 3.09 %); type: functional
[17] = Toxicity in BALB/c mouse xenografted with human PANC-1 cells assessed as pathological changes in lung at 20 mg/kg, ip for 4 weeks administered for 5 days consecutively and 2 days without treatment on every week in presence of OL by H and E staining based analysis; type: organism-based; settings: in vivo, 672 h
PANC-1 [18] = experiment: Induction of cell cycle arrest in human PANC-1 cells assessed as accumulation at G0/G1 phase at 1 uM incubated for 24 hrs in presence of OL by PI staining based flow cytometry relative to control; type: functional
PANC-1 [19] = experiment: Induction of cell cycle arrest in human PANC-1 cells assessed as accumulation at G1 phase at 0.12 uM incubated for 24 hrs by PI staining based flow cytometry (reference value: 51.70 %); type: functional
[20] = Toxicity in BALB/c mouse xenografted with human PANC-1 cells assessed as body weight loss at 20 mg/kg, ip for 4 weeks administered for 5 days consecutively and 2 days without treatment on every week; type: organism-based; settings: in vivo, 672 h
[21] = Toxicity in BALB/c mouse xenografted with human PANC-1 cells assessed as animal mortality at 20 mg/kg, ip for 4 weeks administered for 5 days consecutively and 2 days without treatment on every week in presence of OL; type: organism-based; settings: in vivo, 672 h
PANC-1 [22] = experiment: Induction of cell cycle arrest in human PANC-1 cells assessed as accumulation at G1 phase at 1 uM incubated for 24 hrs by PI staining based flow cytometry (reference value: 51.70 %); type: functional
PANC-1 [23] = experiment: Induction of DNA damage in human PANC-1 cells assessed as increase in gamma-H2AX level at 1 uM in presence of OL by Western blot analysis; type: functional, cell-based
PANC-1 [24] = experiment: Induction of apoptosis in human PANC-1 cells assessed as necrotic cells at 1 uM incubated for 48 hrs by Annexin V-FITC/PI staining based flow cytometry (reference value: 3.09 %); type: functional
PANC-1 [25] = experiment: Induction of apoptosis in human PANC-1 cells assessed as early apoptotic cells at 0.5 uM incubated for 48 hrs by Annexin V-FITC/PI staining based flow cytometry (reference value: 1.41 %); type: functional
PANC-1 [26] = experiment: Induction of apoptosis in human PANC-1 cells assessed as viable cells at 0.25 uM incubated for 48 hrs by Annexin V-FITC/PI staining based flow cytometry (reference value: 91.64 %); type: functional; settings: read-out: Activity
PANC-1 [27] = experiment: Induction of apoptosis in human PANC-1 cells assessed as necrotic cells at 1 uM incubated for 48 hrs in presence of OL by Annexin V-FITC/PI staining based flow cytometry (reference value: 3.09 %); type: functional
PANC-1 [28] = experiment: Induction of cell cycle arrest in human PANC-1 cells assessed as accumulation at G2 phase at 1 uM incubated for 24 hrs in presence of OL by PI staining based flow cytometry (reference value: 9.36 %); type: functional
[29] = Toxicity in BALB/c mouse xenografted with human PANC-1 cells assessed as pathological changes in liver at 20 mg/kg, ip for 4 weeks administered for 5 days consecutively and 2 days without treatment on every week in presence of OL by H and E staining based analysis; type: organism-based; settings: in vivo, 672 h
PANC-1 [30] = experiment: Induction of cell cycle arrest in human PANC-1 cells assessed as accumulation at S phase at 1 uM incubated for 24 hrs by PI staining based flow cytometry (reference value: 38.94 %); type: functional
[31] = Toxicity in BALB/c mouse xenografted with human PANC-1 cells assessed as drug tolerance at 20 mg/kg, ip for 4 weeks administered for 5 days consecutively and 2 days without treatment on every week; type: organism-based; settings: in vivo, 672 h
PANC-1 [32] = experiment: Induction of apoptosis in human PANC-1 cells at 1 uM incubated for 48 hrs in presence of OL by Annexin V-FITC/PI staining based flow cytometry relative to control; type: functional

With `O=C(c1cc(Cc2n[nH]c(=O)c3ccccc23)ccc1F)N1CCN(C(=O)C2CC2)CC1` [OLAPARIB] the Activity (PANC-1 [1]) was 8.1%, the CI (PANC-1 [2]) was under 1 and the Activity (PANC-1 [3]) was “Active; Only A Slight Increase Observed”.
With `O=C1CCC(N2C(=O)c3cccc(NC(=O)CNCCCCCCCCCCC(=O)N4CCN(C(=O)c5cc(Cc6n[nH]c(=O)c7ccccc67)ccc5F)CC4)c3C2=O)C(=O)N1` (stereo not drawn) the DC50 [4] was 2.55 nM, the Activity ([4]; dose <= 10.0 µM) was “Dose-dependent-effect” and the Activity (PANC-1 [5]) was “Active”. The Activity [6] was “Active”, the Activity (PANC-1 [7]) was 8.3% and the Emax [8] was over 95%. The Activity (PANC-1 [9]) was “Active” and the Activity (PANC-1 [10]) was about 11%.
With `Cc1sc2c(c1C)C(c1ccc(Cl)cc1)=N[C@@H](CC(=O)OC(C)(C)C)c1nnc(C)n1-2` the Activity (PANC-1 [11]) was 6.72%, the Activity [12] was “Non-toxic” and the Activity (PANC-1 [13]) was 48.96%. For the same compound, the Activity (PANC-1 [14]) was 12.15%, the inhibition (PANC-1 [15]) was “Active” and the Activity (PANC-1 [16]) was 2.48%. For the same compound, the Activity [17] was “Non-toxic”, the Activity (PANC-1 [18]) was 12.43% and the Activity (PANC-1 [19]) was 46.24%. The Activity [20] was “Toxic”, the Activity [21] was “Non-toxic” and the Activity (PANC-1 [22]) was 58.49%. The Activity (PANC-1 [23]) was “Active”, the Activity (PANC-1 [24]) was 4.54% and the Activity (PANC-1 [25]) was 3.52%. For the same compound, the viability at 0.25 µM (PANC-1 [26]) was 89.4%, the Activity (PANC-1 [27]) was 4.77% and the Activity (PANC-1 [28]) was 15.74%. The Activity [29] was “Non-toxic”, the Activity (PANC-1 [30]) was 26.24% and the Activity [31] was “Non-toxic”. It also gave an Activity (PANC-1 [32]) of 26.9%.

Source: ChEMBL document CHEMBL6096630, “Enhancing therapeutic efficacy in homologous recombination-proficient pancreatic cancer via the combination of PARP1-PROTAC and a BRD4 inhibitor” (Bioorg Med Chem, 2024)
